Like-named read-outs stand apart in the source and are kept apart here.
Key:
[1] = test system: phosphorylation of AKT on Ser473 as a readout of the PI3K pathway in T-47D (heterozygous PIK3CA H1047R) cells; test: PI3K pathway activation assay, pAKT Ser473 HTRF, T-47D cells; format: cell-based; settings: two hours of treatment
Procedure, shortened: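 pAKT Ser473 measured by HTRF in SKBR3 (PIK3CA WT) and T-47D (PIK3CA H1047R) cells, 4,000/well. Signal normalised to background and DMSO controls as percent inhibition.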

[2] = test system: phosphorylation of AKT on Ser473 as a readout of the PI3K pathway in SKBR3 (PIK3CA WT) cells; test: PI3K pathway activation assay, pAKT Ser473 HTRF, SKBR3 cells; format: cell-based; settings: two hours of treatment
Method: The inhibitory activity of compounds was evaluated by measuring phosphorylation of AKT on Ser473 as a readout of the PI3K pathway using HTRF (CisBio catalog number: 64AKSPE). These studies were conducted in the T-47D (heterozygous PIK3CA H1047R) and SKBR3 (PIK3CA WT) cell lines. Cells were maintained in a 37° C. incubator at 5% CO2 in the following media: T-47D: RPMI 1640, ATCC© Modification (Gibco, A10491-01) supplemented with 10% v/v FBS (Gibco, 26140-079), 1% penicillin streptomycin (Gibco, 15140-122), and 7.4 ug/mL insulin (MilliporeSigma, I9278); SKBR3: McCoy's 5a (Modified) Medium (Gibco, 16600-082) supplemented with 10% v/v FBS (Gibco, 26140-079). Cells were seeded in 384-well plates at a density of 4,000 cells/well. Compounds dissolved in DMSO were added using a digital dispense (D300E, Tecan) 10-point serial dilution. After two hours of treatment, cells were lysed for thirty minutes and then incubated with detection reagents per HTRF kit material and manufacturer's instructions. Fluorescence signal was measured with a multimode plate reader (Envision 2105, Perkin Elmer). Fluorescent signal was normalized to background and DMSO controls to obtain percent inhibition/activity for each compound.

SMILES | IC50 ([1]; Homo sapiens, T47D, 2 h) | IC50 ([2]; Homo sapiens, SK-BR-3, 2 h) | IC50 ([1]; read-out: T47D pAKT IC50) | IC50 [2]
Cc1cc(C(C)Nc2ccccc2C(=O)O)c2nc(N3CC4CCC3C4)n(C)c(=O)c2c1 (single isomer, unassigned) [Example 99, 2-((1-(2-(2-Azabicyclo[2.2.1]heptan-2-yl)-3,6-dimethyl-4-oxo-3,4-dihydro-quinazolin-8-yl)ethyl)amino)benzoic acid] | < 0.5 µM | > 10 µM |  | 
Cc1cc(C(C)Nc2ccccc2C(=O)O)c2nc(N3C[C@@H]4[C@H](C3)[C@H]4C(=O)N(C)C)n(C)c(=O)c2c1 (stereo partly drawn) [Example 90, 2-((1-(2-((1R,5S,6R)-6-(Dimethylcarbamoyl)-3-azabicyclo[3.1.0]hexan-3-yl)-3,6-dimethyl-4-oxo-3,4-dihydroquinazolin-8-yl)ethyl)amino)benzoic acid] |  |  | 0.5 to 10 µM | > 10 µM
Cc1cc(C(C)Nc2ccccc2C(=O)O)c2nc(N3Cc4ccccc4C3)n(C)c(=O)c2c1 (stereo not shown) [Example 1, 2-((1-(2-(isoindolin-2-yl)-3,6-dimethyl-4-oxo-3,4-dihydroquinazolin-8-yl)ethyl)amino)benzoic acid] | < 0.5 µM | > 10 µM |  | 
Cc1cc(C(C)Nc2ccccc2S(N)(=O)=O)c2nc(N3Cc4ccccc4C3)n(C)c(=O)c2c1 (stereo not shown) [Example 6, 2-((1-(2-(isoindolin-2-yl)-3,6-dimethyl-4-oxo-3,4-dihydroquinazolin-8-yl)ethyl)amino)benzenesulfonamide] | < 0.5 µM | > 10 µM |  | 
Cc1cc(C(C)Nc2ccccc2-c2nnn[nH]2)c2nc(N3Cc4ccccc4C3)n(C)c(=O)c2c1 (stereo not shown) [Example 9, 8-(1-((2-(1H-tetrazol-5-yl)phenyl)amino)ethyl)-2-(isoindolin-2-yl)-3,6-dimethylquinazolin-4(3H)-one] | 0.5 to 10 µM | > 10 µM |  | 
Cc1cc(C(C)Nc2cc(C#N)ccc2C(=O)O)c2nc(N3CC4CC4C3)n(C)c(=O)c2c1 (stereo not shown) [Example 23, 2-((1-(2-(3-azabicyclo[3.1.0]hexan-3-yl)-3,6-dimethyl-4-oxo-3,4-dihydro-quinazolin-8-yl)ethyl)amino)-4-cyanobenzoic acid] | 0.5 to 10 µM | > 10 µM |  | 
CC(=O)N1CCN(c2nc3c(C(C)Nc4ccccc4C(=O)O)cc(C)cc3c(=O)n2C)CC1 (stereo not shown) [Example 46, 2-((1-(2-(4-acetylpiperazin-1-yl)-3,6-dimethyl-4-oxo-3,4-dihydroquinazolin-8-yl)ethyl)amino)benzoic acid] | 0.5 to 10 µM | > 10 µM |  | 
CSc1nc2c(C(C)Nc3ccccc3C(=O)O)cc(C)cc2c(=O)n1C (stereo not shown) [Example 43, 2-[1-(3,6-dimethyl-2-methylsulfanyl-4-oxoquinazolin-8-yl)ethylamino]benzoic acid] | 0.5 to 10 µM | > 10 µM |  | 
CNS(=O)(=O)c1ccccc1NC(C)c1cc(C)cc2c(=O)n(C)c(N3Cc4ccccc4C3)nc12 (stereo not shown) [Example 7, 2-((1-(2-(isoindolin-2-yl)-3,6-dimethyl-4-oxo-3,4-dihydroquinazolin-8-yl)ethyl)amino)-N-methylbenzenesulfonamide] | 0.5 to 10 µM | > 10 µM |  | 
COc1nc2c(C(C)Nc3ccccc3C(=O)O)cc(C)cc2c(=O)n1C (stereo not shown) [Example 41, 2-[1-(2-methoxy-3,6-dimethyl-4-oxoquinazolin-8-yl)ethylamino]benzoic acid] | 0.5 to 10 µM | > 10 µM |  | 
Cc1cc(C(C)Nc2ccccc2S(C)(=O)=O)c2nc(N3Cc4ccccc4C3)n(C)c(=O)c2c1 (stereo not shown) [Example 8, 2-(isoindolin-2-yl)-3,6-dimethyl-8-(1-((2-(methylsulfonyl)phenyl)amino)ethyl)quinazolin-4(3H)-one] | 0.5 to 10 µM | > 10 µM |  | 
Cc1cc(C(C)Nc2ccccc2C(=O)O)c2nc(N3Cc4ccccc4C3)n([C@H]3C[C@H](O)C3)c(=O)c2c1 (stereo partly shown) [Example 48, 2-((1-(3-((1r,3r)-3-Hydroxycyclobutyl)-2-(isoindolin-2-yl)-6-methyl-4-oxo-3,4-dihydroquinazolin-8-yl)ethyl)amino)benzoic acid] | < 0.5 µM | > 10 µM |  | 
Cc1cc(C(C)Nc2ccccc2C(=O)O)c2nc(N3CC4CC4C3)n(C)c(=O)c2c1 (single isomer, unassigned) [Example 24, 2-((1-(2-(3-azabicyclo[3.1.0]hexan-3-yl)-3,6-dimethyl-4-oxo-3,4-dihydro-quinazolin-8-yl)ethyl)amino)benzoic acid] | < 0.5 µM | > 10 µM |  | 
Cc1cc(C(C)Nc2ccc(F)c(O)c2F)c2nc(N3Cc4ccccc4C3)n(C)c(=O)c2c1 (stereo not shown) [Example 11, 8-(1-((2,4-difluoro-3-hydroxyphenyl)amino)ethyl)-2-(isoindolin-2-yl)-3,6-dimethylquinazolin-4(3H)-one] | 0.5 to 10 µM | > 10 µM |  | 
Cc1cc(C(C)Nc2ccccc2C(=O)O)c2nc(N3C[C@@H]4C(C(=O)N(C)C5CCC5)[C@@H]4C3)n(C)c(=O)c2c1 (stereo partly drawn) [Example 82, 2-((1-(2-((1R,5S,6R)-6-(Cyclobutyl(methyl)carbamoyl)-3-azabicyclo[3.1.0]hexan-3-yl)-3,6-dimethyl-4-oxo-3,4-dihydroquinazolin-8-yl)ethyl)amino)benzoic acid] |  |  | < 0.5 µM | > 10 µM
Cc1cc(C(C)Nc2ccccc2C(=O)O)c2nc(N3Cc4cccnc4C3)n(C)c(=O)c2c1 (single isomer, unassigned) [Example 67, 2-((1-(2-(5,7-Dihydro-6H-pyrrolo[3,4-b]pyridin-6-yl)-3,6-dimethyl-4-oxo-3,4-dihydroquinazolin-8-yl)ethyl)amino)benzoic acid] | < 0.5 µM | > 10 µM |  | 
COC(=O)NC1[C@H]2CN(c3nc4c(C(C)Nc5ccccc5C(=O)O)cc(C)cc4c(=O)n3C)C[C@@H]12 (stereo partly drawn) [Example 58, 2-((1-(2-((1R,5S,6s)-6-((methoxycarbonyl)amino)-3-azabicyclo[3.1.0]hexan-3-yl)-3,6-dimethyl-4-oxo-3,4-dihydroquinazolin-8-yl)ethyl)amino)benzoic acid] | < 0.5 µM | > 10 µM |  | 
Cc1cc(C(C)Nc2ccccc2C(=O)O)c2nc(N3CCCCCC3)n(C)c(=O)c2c1 (stereo not shown) [Example 55, 2-((1-(2-(azepan-1-yl)-3,6-dimethyl-4-oxo-3,4-dihydroquinazolin-8-yl)ethyl)amino)benzoic acid] | < 0.5 µM | > 10 µM |  | 
Cc1cc(C(C)Nc2ccccc2C(=O)O)c2nc(N3Cc4ccc(F)cc4C3)n(C)c(=O)c2c1 (stereo not shown) [Example 2, 2-((1-(2-(5-fluoroisoindolin-2-yl)-3,6-dimethyl-4-oxo-3,4-dihydroquinazolin-8-yl)ethyl)amino)benzoic acid] | < 0.5 µM | > 10 µM |  | 
[2H]C([2H])([2H])c1cc(C(C)Nc2ccccc2C(=O)O)c2nc(N3CC4CC4C3)n(C)c(=O)c2c1 (single isomer, unassigned) [Example 68] | < 0.5 µM | > 10 µM |  | 
Cc1cc(C(C)Nc2ccccc2C(=O)O)c2nc(N3CC4CCC3C4)n(C)c(=O)c2c1 (single isomer, unassigned) [Example 100, 2-((1-(2-(2-Azabicyclo[2.2.1]heptan-2-yl)-3,6-dimethyl-4-oxo-3,4-dihydro-quinazolin-8-yl)ethyl)amino)benzoic acid] |  |  | < 0.5 µM | > 10 µM
Cc1cc(C(C)Nc2ccccc2C(=O)O)c2nc(N(C)C)n(C)c(=O)c2c1 (stereo not shown) [Example 54, 2-[1-[2-(dimethylamino)-3,6-dimethyl-4-oxoquinazolin-8-yl]ethylamino]benzoic acid] | 0.5 to 10 µM | > 10 µM |  | 
Cc1cc(C(C)Nc2ccc(C#N)cc2C(=O)O)c2nc(N3Cc4ccccc4C3)n(C)c(=O)c2c1 (stereo not shown) [Example 31, 5-cyano-2-((1-(2-(isoindolin-2-yl)-3,6-dimethyl-4-oxo-3,4-dihydroquinazolin-8-yl)ethyl)amino)benzoic acid] | < 0.5 µM | > 10 µM |  | 
Cc1cc(C(C)Nc2ccccc2C(=O)O)c2nc(N3Cc4ccccc4C3)n(C(C)C)c(=O)c2c1 (single isomer, unassigned) [Example 27, 2-((1-(2-(isoindolin-2-yl)-3-isopropyl-6-methyl-4-oxo-3,4-dihydroquinazolin-8-yl)ethyl)amino)benzoic acid] | < 0.5 µM | > 10 µM |  | 
Cc1cc(C(C)Nc2ccc(C)nc2C(=O)O)c2nc(N3CC4CC4C3)n(C)c(=O)c2c1 (stereo not shown) [Example 120, 3-[1-[2-(3-Azabicyclo[3.1.0]hexan-3-yl)-3,6-dimethyl-4-oxoquinazolin-8-yl]ethylamino]-6-methylpyridine-2-carboxylic acid] | 0.5 to 10 µM | > 10 µM |  | 
Cc1cc(C(C)Nc2ccccc2C(=O)O)c2nc(N3Cc4ccccc4C3)[nH]c(=O)c2c1 (stereo not shown) [Example 22, 2-((1-(2-(isoindolin-2-yl)-6-methyl-4-oxo-3,4-dihydroquinazolin-8-yl)ethyl)amino)benzoic acid] | < 0.5 µM | > 10 µM |  | 

Source: patent publication US20240124422A1, “MUTANT PI3K-ALPHA INHIBITORS AND THEIR USE AS PHARMACEUTICALS” (Prelude Therapeutics Incorporated, priority 2022, published 2024)
